Data from US20190055517A1, “Cell Line of M2c Macrophage and Its Applications” (National Pingtung University of Science and Technology, priority 2017, published 2019).

Key:
murine M2 macrophage = assay: mRNA expression level of each gene by real time PCR (qPCR) after induced differentiation; format: cell-based; details: for IL-6 mRNA expression level: conditions of chart 2, FIG. 6
Procedure: Embodiment 1 is prepared by the steps described above, isolate monocytes from murine bone marrow and use M-CSF to induce differentiation of M2 macrophage, and then use baicalin to induce M2C macrophage polarization. In comparison 1, incubate murine M2 macrophage in RPMI 1640 (10% FCS) containing LPS (lipopolysaccharide, 1 μg/ml, Sigma-Aldrich) for 2 hours. In comparison 2, incubate murine M2 macrophage in medium containing IL-4 ([…] Guidance System, Cambridge, UK) for 24 hours. The control group of M2 macrophage is incubated in RPMI 1640 (10% FCS) without any drugs. The conditions are shown below in chart 2.
After induced differentiation is complete, use flow cytometry to analyse the macrophage phenotype, in the meantime, also use real time PCR (qPCR) to observe mRNA expression level of each gene.
TNF-Alpha: M1 macrophage expression gene IRF5: M1 macrophage polarization promoting gene IRF4: M2 macrophage polarization promoting gene ARG1 (Arginase-1): M2a macrophage molecular marker IL-10: cytokine that promotes M2 macrophage polarization and inhibits inflammation IL-6: cytokine that promotes inflammation and also serves as M2b macrophage molecular marker. MERTK: a gene that serves as M2C macrophage molecular marker and promotes phagocytosis PTX3: a gene that serves as M2C macrophage molecular marker and promotes phagocytosis VEGF-A: vascular endothelial growth factor PD-L1: a gene that regulates T cell and promotes tissue autoimmune tolerance

Raw264.7 macrophages = assay: VEGF-A protein in conditioned medium by ELISA; format: cell-based, murine; details: baicalin 50 μM, 48 hours, p<0.05, FIG. 13
Procedure: In this example, experiment was performed to further examine whether […] cells treated with baicalin will express VEGF-A protein. Add LPS (1 μg/ml), baicalin (50 μM) and IL-4 (10 ng/ml) respectively to medium culturing […]; Raw264.7 macrophages (ATCC, USA) and culture for 48 hours. Collect the conditioned medium and quantify VEGF-A protein by EUSA (Mouse VEGF EUSA Kit, Code: EK0541, BosterBio, CA, USA). Control group is cultured in the medium (90% DMEM+10% FBS) without any mentioned drugs. […] […] macrophage treated with baicalin can promote macrophage to secrete VEGF-A protein and the efficacy is greater than IL-4.

[1] = conditions of chart 2, P<0.05, FIG. 7 and FIG. 8
[2] = conditions of chart 2, p<0.05, FIG. 5

## O=C(O)[C@H]1O[C@@H](Oc2cc3oc(-c4ccccc4)cc(=O)c3c(O)c2O)[C@H](O)[C@@H](O)[C@@H]1O [Baicalin]
Murine M2 macrophage
  IL-6 mRNA expression level: significantly lower than comparison 1
Murine M2 macrophage; listed as embodiment 1
  IL-6 mRNA expression level: low
Murine M2 macrophage; conditions of chart 2, P<0.05, FIG. 6
  IL-10 mRNA expression level: significantly higher than comparison 1 and 2
Murine M2 macrophage; [1]
  MERTK mRNA expression level: significantly higher than control, comparison 1 and 2
  PD-L1 mRNA expression level: significantly higher than control, comparison 1 and 2
  PTX3 mRNA expression level: significantly higher than control, comparison 1 and 2
  VEGF-A mRNA expression level: significantly higher than control, comparison 1 and 2
Murine M2 macrophage; [2]
  IRF4 mRNA expression level: significantly lower than comparison 2
  IRF5 mRNA expression level: significantly lower than comparison 1
  TNF-Alpha mRNA expression level: significantly lower than comparison 1
Murine M2 macrophage; conditions of chart 2, p<0.05, FIG. 6
  ARG1 mRNA expression level: significantly lower than comparison 2
Raw264.7 macrophages
  VEGF-A protein detected in conditioned medium: higher than control group and other groups treated with other drugs
